# From US9783505B2, “Substituted diaminopyrimidyl compounds, compositions thereof, and methods of treatment therewith” (Signal Pharmaceuticals, LLC, priority 2013, dated 2017)
# Columns and labels:
# PKC delta = molecular target: T1, PKC delta (Homo sapiens, UniProt Q05655); experiment: PKC delta Assay (384-well time resolved fluorescence, IMAP TR-FRET); format: biochemical; conditions: selectivity for PKC-theta over PKC-delta
# T1 construct: purchased Invitrogen
# Procedure: PKC delta Assay. A 384-well time resolved fluorescence assay was used to monitor PKC delta activity. The PKC delta assay was run in the following assay buffer: 50 mM HEPES pH 7.6, 10 mM MgCl2, 1 mM DTT, 0.01% Triton X-100, 0.01% BSA and 0.1 mM EDTA. To initiate the reaction, 200 nM of Fam-labeled S6-derived peptide (Molecular Devices) and 10 μM of ATP were mixed with 1.5 nM of PKC delta (Invitrogen), for a total assay volume of 25 μL in each well. The assay was incubated at room temperature for 2 hours and terminated using a 60 μL/well mixture of Detection Binding Solution: 70% IMAP Progressive Binding Buffer A, 30% IMAP Progressive Binding Buffer B, 1:600 Progressive Binding Reagent, and 1:400 TR-FRET Tb Donor (Molecular Devices). The assay plates were then incubated overnight at room temperature and read on the Perkin-Elmer Envision Reader.
# His-PKC-theta = molecular target: T2, His-PKC-theta (Homo sapiens, UniProt Q04759); experiment: PKC-theta Assay (384-well time resolved fluorescence, IMAP TR-FRET); format: biochemical; conditions: read-out: Act. Level (IC50 in the PKC-theta Assay)
# T2 construct: His; purchased Invitrogen
# Method in brief: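 Fam-labeled S6-derived peptide (200 nM) and 10 μM ATP were reacted with 142 pM enzyme for 2 h at room temperature in HEPES pH 7.6 buffer with MgCl2, DTT, Triton X-100, BSA and EDTA. The reaction was stopped with IMAP progressive binding reagent plus Tb donor, incubated overnight, then TR-FRET read.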
# T2 sequence (Q04759 whole entry): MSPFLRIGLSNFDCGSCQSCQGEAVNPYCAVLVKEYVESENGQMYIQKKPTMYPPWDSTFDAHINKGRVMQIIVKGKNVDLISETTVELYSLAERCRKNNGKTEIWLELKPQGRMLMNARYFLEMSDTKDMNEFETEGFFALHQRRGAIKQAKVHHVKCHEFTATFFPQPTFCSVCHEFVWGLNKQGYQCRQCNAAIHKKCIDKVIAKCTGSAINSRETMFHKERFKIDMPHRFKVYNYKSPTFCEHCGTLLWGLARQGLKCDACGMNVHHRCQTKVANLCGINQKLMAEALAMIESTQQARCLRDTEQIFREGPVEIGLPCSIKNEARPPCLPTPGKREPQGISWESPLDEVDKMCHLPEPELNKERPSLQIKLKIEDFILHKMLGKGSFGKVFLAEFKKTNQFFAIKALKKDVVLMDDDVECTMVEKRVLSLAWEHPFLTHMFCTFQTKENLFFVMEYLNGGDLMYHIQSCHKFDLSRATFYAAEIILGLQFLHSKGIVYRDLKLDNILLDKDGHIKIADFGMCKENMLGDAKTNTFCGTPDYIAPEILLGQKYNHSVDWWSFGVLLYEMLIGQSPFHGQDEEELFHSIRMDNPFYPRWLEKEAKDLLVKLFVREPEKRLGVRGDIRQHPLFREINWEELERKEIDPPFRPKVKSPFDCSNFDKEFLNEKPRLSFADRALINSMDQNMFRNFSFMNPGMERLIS
# T1 sequence (Q05655 whole entry): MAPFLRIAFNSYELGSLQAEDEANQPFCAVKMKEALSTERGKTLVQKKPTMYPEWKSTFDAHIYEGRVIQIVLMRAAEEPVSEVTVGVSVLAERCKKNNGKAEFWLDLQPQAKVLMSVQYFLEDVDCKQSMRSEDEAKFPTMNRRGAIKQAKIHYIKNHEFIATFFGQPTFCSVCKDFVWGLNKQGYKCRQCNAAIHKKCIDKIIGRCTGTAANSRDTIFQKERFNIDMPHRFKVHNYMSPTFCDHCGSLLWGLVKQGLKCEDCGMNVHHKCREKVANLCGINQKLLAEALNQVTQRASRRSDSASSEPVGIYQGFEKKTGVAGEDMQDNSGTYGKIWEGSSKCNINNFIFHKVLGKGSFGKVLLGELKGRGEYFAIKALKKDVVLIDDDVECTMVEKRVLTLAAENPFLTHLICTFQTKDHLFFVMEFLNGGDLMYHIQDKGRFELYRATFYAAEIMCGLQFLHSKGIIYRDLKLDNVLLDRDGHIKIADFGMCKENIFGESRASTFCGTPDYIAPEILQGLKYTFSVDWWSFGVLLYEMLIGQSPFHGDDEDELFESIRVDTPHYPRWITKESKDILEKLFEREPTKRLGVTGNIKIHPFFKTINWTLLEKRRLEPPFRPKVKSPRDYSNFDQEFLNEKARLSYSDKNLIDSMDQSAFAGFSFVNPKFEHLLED
IC50 (His-PKC-theta),Structure (SMILES),Sel. Level (ratio of IC50 PKC-delta/IC50 PKC-theta) (PKC delta)
100 to 800 nM,N#Cc1cnc(NCCc2c[nH]c3ccccc23)nc1N[C@H]1C[C@@H](C(N)=O)C1 [Cmpd 290],F (selectivity of between 20- and 100-fold (selectivity level F))
100 to 800 nM,CC1(C)[C@@H](O)C[C@H]1Nc1nc(NCCc2cc3cc(C#N)ccc3[nH]2)ncc1C#N [Cmpd 264],G (selectivity between 5- and 20-fold (selectivity level G))
800 to 2000 nM,CC1(C)[C@@H](O)C[C@H]1Nc1nc(NCCc2ccnc(C(F)(F)F)c2)ncc1C#N [Cmpd 273],G (selectivity between 5- and 20-fold (selectivity level G))
100 to 800 nM,CC1(C)[C@@H](O)C[C@H]1Nc1nc(NCCC2CNc3cc(Cl)ccc32)ncc1C#N (stereo partly shown) [Cmpd 263],G (selectivity between 5- and 20-fold (selectivity level G))
2000 to 10000 nM,CC1(C)C[C@H](Nc2nc(NCCc3c[nH]c4ccncc34)ncc2C#N)CC[C@@H]1O [Cmpd 284],H (selectivity level of 5-fold or less (selectivity level H))
2000 to 10000 nM,CC1(C)CC(Nc2nc(NCCc3c[nH]c4cccnc34)ncc2C#N)CC[C@@H]1O (stereo partly shown) [Cmpd 255],H (selectivity level of 5-fold or less (selectivity level H))
< 100 nM,CC(F)(F)COc1ncncc1CNc1ncc(C#N)c(N[C@H]2CCC[C@@H](O)C2(C)C)n1 [Cmpd 298],E (selectivity (Sel. Level=ratio of IC50 PKC-delta/IC50 PKC-theta) of >100-fold (selectivity level E))
800 to 2000 nM,CCOc1cccc(CCNc2ncc(C#N)c(N[C@@H]3C[C@H](O)C3(C)C)n2)n1 [Cmpd 267],G (selectivity between 5- and 20-fold (selectivity level G))
< 100 nM,CC(F)(F)COc1ncncc1CNc1ncc(C#N)c(N[C@@H]2CCC[C@H](O)C2(C)C)n1 [Cmpd 299],E (selectivity (Sel. Level=ratio of IC50 PKC-delta/IC50 PKC-theta) of >100-fold (selectivity level E))
2000 to 10000 nM,CC1(C)C[C@H](Nc2nc(NCCc3ccncn3)ncc2C#N)CC[C@@H]1O [Cmpd 278],H (selectivity level of 5-fold or less (selectivity level H))

# The next lines start with the compound.
Structure (SMILES),IC50 (His-PKC-theta),Sel. Level (ratio of IC50 PKC-delta/IC50 PKC-theta) (PKC delta)
CC1(C)C[C@H](Nc2nc(NCCc3cn[nH]c3)ncc2C#N)CC[C@@H]1O [Cmpd 208],100 to 800 nM,G (selectivity between 5- and 20-fold (selectivity level G))
Cc1cccc(CCNc2ncc(C#N)c(N[C@@H]3CC[C@H](O)C(C)(C)C3)n2)n1 [Cmpd 250],800 to 2000 nM,G (selectivity between 5- and 20-fold (selectivity level G))
CCc1ccc2c(c1)C(CCNc1ncc(C#N)c(N[C@@H]3CC[C@H](O)C(C)(C)C3)n1)C(=O)N2 (stereo partly shown) [Cmpd 249],< 100 nM,E (selectivity (Sel. Level=ratio of IC50 PKC-delta/IC50 PKC-theta) of >100-fold (selectivity level E))
CC1(C)[C@@H](O)C[C@H]1Nc1nc(NCCc2cnoc2)ncc1C#N [Cmpd 246],2000 to 10000 nM,H (selectivity level of 5-fold or less (selectivity level H))
CC1(C)C[C@H](Nc2nc(NCCc3ccc(OCC(F)(F)F)nc3)ncc2C#N)CC[C@@H]1O [Cmpd 253],100 to 800 nM,F (selectivity of between 20- and 100-fold (selectivity level F))
Cc1[nH]c2cc(Cl)cc(Cl)c2c1CCNc1ncc(C#N)c(N[C@@H]2CC[C@H](O)C(C)(C)C2)n1 [Cmpd 254],100 to 800 nM,G (selectivity between 5- and 20-fold (selectivity level G))
Cc1cc2ccccc2n1CCNc1ncc(C#N)c(N[C@@H]2C[C@H](O)C2(C)C)n1 [Cmpd 243],800 to 2000 nM,G (selectivity between 5- and 20-fold (selectivity level G))
COc1cccc(CCNc2ncc(C#N)c(N[C@@H]3CC(O)C3(C)C)n2)n1 (stereo partly shown) [Cmpd 227],800 to 2000 nM,G (selectivity between 5- and 20-fold (selectivity level G))
CC1(C)[C@@H](O)C[C@H]1Nc1nc(NCCc2ccco2)ncc1C#N [Cmpd 234],800 to 2000 nM,G (selectivity between 5- and 20-fold (selectivity level G))
Cc1cc2ccccc2n1CCNc1ncc(C#N)c(N[C@@H]2CC[C@H](O)C(C)(C)C2)n1 [Cmpd 206],100 to 800 nM,F (selectivity of between 20- and 100-fold (selectivity level F))
